Earlier results as cited in patent publication US20030225048A1, “Sulfatase inhibiting continuous progestogen contraceptive regimens” (priority 2002, published 2003).

Conditions: humans; norelgestromin is the major metabolite

norgestimate converted to norelgestromin in vivo: ≥ 80%
SMILES: C#C[C@]1(OC(C)=O)CC[C@H]2[C@@H]3CCC4=CC(=NO)CC[C@@H]4[C@H]3CC[C@@]21CC (mixture of isomers) [norgestimate]
